Laboratory results as given in ChEMBL document CHEMBL6114966, “Discovery of maleimide derivatives as m6A demethylase ALKBH5 inhibitors” (Bioorg Med Chem, 2025).
The source made the active and inactive calls. The calls are words filed in the database; no cut-off is given here.

Legend:
RNA demethylase ALKBH5 [1] = biological target: T1, RNA demethylase ALKBH5 (Homo sapiens, UniProt Q6P6C2); experiment: Inhibition of ALKBH5 (unknown origin) using 5'-ATTGTCA(m6A)CAGCAGA-FAM-3' as substrate measured after 30 mins by fluorescence polarization assay
RNA demethylase ALKBH5 [2] = biological target: T1, RNA demethylase ALKBH5; experiment: Inhibition of ALKBH5 (unknown origin) using 5'-TAGACATTGCCATTCTCGATAGG (m6A) TCCGGTCAAACCTAGAC GAATTCCA-3' as substrate measured after 2 hrs in presence of 2-OG by PAGE based restriction enzyme digestion assay
RNA demethylase ALKBH5 [3] = biological target: T1, RNA demethylase ALKBH5; experiment: Inhibition of ALKBH5 (unknown origin) at 20 to 100 uM using 5'-TAGACATTGCCATTCTCGATAGG (m6A) TCCGGTCAAACCTAGAC GAATTCCA-3' as substrate measured after 2 hrs in presence of 2-OG by PAGE based restriction enzyme digestion assay; conditions: dose 20-100 µM
[4] = biological target: T2, Alpha-ketoglutarate-dependent dioxygenase FTO (Homo sapiens, UniProt Q9C0B1); experiment: Inhibition of FTO (unknown origin) at 25 to 200 uM using 5'-TAGACATTGCCATTCTCGATAGG (m6A) TCCGGTCAAACCTAGAC GAATTCCA-3' as substrate measured after 2 hrs in presence of varying levels of 2-OG by PAGE based restriction enzyme digestion assay; conditions: dose 25-200 µM
RNA demethylase ALKBH5 [5] = biological target: T1, RNA demethylase ALKBH5; experiment: Inhibition of ALKBH5 in human MV4-11 cells assessed as down regulation of TACC3 expression measured after 48 hrs by Western blot analysis; type: cell-based; conditions: dose 5-40 µM
[6] = biological target: T2, Alpha-ketoglutarate-dependent dioxygenase FTO; experiment: Inhibition of FTO (unknown origin) using 5'-TAGACATTGCCATTCTCGATAGG (m6A) TCCGGTCAAACCTAGAC GAATTCCA-3' as substrate measured after 2 hrs in presence of 2-OG by PAGE based restriction enzyme digestion assay
RNA demethylase ALKBH5 [7] = biological target: T1, RNA demethylase ALKBH5; experiment: Inhibition of ALKBH5 in human MV4-11 cells assessed as increase in intracellular m6A level by dot blot assay; type: cell-based; conditions: dose 20-40 µM
MV4-11 = experiment: Antiproliferative activity against human MV4-11 cells assessed as reduction in cell viability measured after 72 hrs by CellTiter-Lumi luminescence assay; type: functional, cell-based; conditions: MV4-11, 72 h
RNA demethylase ALKBH5 [8] = biological target: T1, RNA demethylase ALKBH5; experiment: Binding affinity to ALKBH5 (unknown origin) by 1H NMR STD analysis
RNA demethylase ALKBH5 [9] = biological target: T1, RNA demethylase ALKBH5; experiment: Inhibition of ALKBH5 in human MV4-11 cells assessed as down regulation of AXL mRNA expression measured after 48 hrs by RT-qPCR analysis; type: cell-based; conditions: dose 10-40 µM
RNA demethylase ALKBH5 [10] = biological target: T1, RNA demethylase ALKBH5; experiment: Inhibition of ALKBH5 in human MV4-11 cells assessed as down regulation of TACC3 mRNA expression measured after 48 hrs by RT-qPCR analysis; type: cell-based; conditions: dose 10-40 µM
RNA demethylase ALKBH5 [11] = biological target: T1, RNA demethylase ALKBH5; experiment: Inhibition of ALKBH5 in human MV4-11 cells assessed as upregulation of p21 mRNA expression measured after 48 hrs by RT-qPCR analysis; type: cell-based; conditions: dose 10-40 µM
RNA demethylase ALKBH5 [12] = biological target: T1, RNA demethylase ALKBH5; experiment: Binding affinity to ALKBH5 (unknown origin) assessed as change in melting temperature at 50 uM measured after 30 mins by thermal shift assay
RNA demethylase ALKBH5 [13] = biological target: T1, RNA demethylase ALKBH5; experiment: Binding affinity to ALKBH5 (unknown origin) assessed as change in melting temperature at 100 uM measured after 30 mins by thermal shift assay
RNA demethylase ALKBH5 [14] = biological target: T1, RNA demethylase ALKBH5; experiment: Binding affinity to ALKBH5 (unknown origin) assessed as change in melting temperature at 25 uM measured after 30 mins by thermal shift assay

Row | IC50 (RNA demethylase ALKBH5 [1]) [µM] | SMILES | further results
1 | > 200 | Cc1cc(N2C(=O)C(Cl)=C(Nc3ccccc3C(=O)O)C2=O)ccc1C(F)(F)F | 
2 | 20.6 | O=C(O)c1ccccc1NC1=C(Cl)C(=O)N(c2ccc(Cl)c(Cl)c2)C1=O | 
3 | > 200 | N#Cc1ccc(N2C(=O)C(Cl)=C(Nc3ccccc3C(=O)O)C2=O)cc1 | 
4 | 17.4 | O=C(O)c1ccccc1NC1=C(Cl)C(=O)N(c2ccc(Br)c(Br)c2)C1=O | 
5 | 16.9 | O=C(O)c1ccccc1NC1=C(Cl)C(=O)N(c2ccc(C(F)(F)F)c(Br)c2)C1=O | IC50 (RNA demethylase ALKBH5 [2]): 25.9 µM; inhibition (RNA demethylase ALKBH5 [3]): Active
6 | > 200 | C#Cc1cccc(N2C(=O)C(Cl)=C(Nc3ccccc3C(=O)O)C2=O)c1 | 
7 | > 200 | N#Cc1cc(C(F)(F)F)ccc1N1C(=O)C(Cl)=C(Nc2ccccc2C(=O)O)C1=O | 
8 | 2.32 | O=C(O)c1ccccc1NC1=C(Cl)C(=O)N(c2ccc(I)c(Cl)c2)C1=O | IC50 (RNA demethylase ALKBH5 [2]): 11.2 µM; inhibition [4]: Active; inhibition (RNA demethylase ALKBH5 [5]): Dose-dependent-effect; IC50 [6]: > 250 µM; inhibition (RNA demethylase ALKBH5 [7]): Dose-dependent-effect; inhibition (RNA demethylase ALKBH5 [3]): Active; IC50 (MV4-11): 31.5 µM; Activity (RNA demethylase ALKBH5 [8]): Active; inhibition (RNA demethylase ALKBH5 [9]): Dose-dependent-effect; inhibition (RNA demethylase ALKBH5 [10]): Dose-dependent-effect; inhibition (RNA demethylase ALKBH5 [11]): Dose-dependent-effect
9 | 9.57 | O=C(O)c1ccccc1NC1=C(Cl)C(=O)N(c2ccc(I)c(Br)c2)C1=O | 
10 | 5.34 | O=C(O)c1ccc(F)cc1NC1=C(Cl)C(=O)N(c2ccc(Br)c(Br)c2)C1=O | 
11 | > 200 | NS(=O)(=O)c1cccc(NC2=C(Cl)C(=O)N(c3ccc(Cl)c(Cl)c3)C2=O)c1 | 
12 | > 200 | Cc1ccc(Br)cc1N1C(=O)C(Cl)=C(Nc2ccccc2C(=O)O)C1=O | 
13 | > 200 | O=C(O)c1ccccc1NC1=C(Cl)C(=O)N(c2cccc(O)c2)C1=O | 
14 | 29.6 | O=C(O)c1ccccc1NC1=C(Cl)C(=O)N(c2cccc(Cl)c2)C1=O | 
15 | 47.8 | O=C(O)c1ccccc1NC1=C(Cl)C(=O)N(c2ccccc2Cl)C1=O | 
16 | > 200 | COC(=O)c1cccc(NC2=C(Cl)C(=O)N(c3ccc(Cl)c(Cl)c3)C2=O)c1 | 
17 | 37 | O=C(O)c1ccccc1NC1=C(Cl)C(=O)N(c2cccc(I)c2)C1=O | 
18 | 45.4 | O=C1C(Cl)=C(Nc2ccccc2)C(=O)N1c1ccc(Cl)c(Cl)c1 | IC50 (RNA demethylase ALKBH5 [2]): < 100 µM; ΔTm (RNA demethylase ALKBH5 [12]): -1.3 °C; ΔTm (RNA demethylase ALKBH5 [13]): -2.4 °C; ΔTm (RNA demethylase ALKBH5 [14]): -1.2 °C
19 | > 200 | Cc1ccc(C(=O)O)c(NC2=C(Cl)C(=O)N(c3ccc(Br)c(Br)c3)C2=O)c1 | 
20 | 21.3 | O=C(O)c1ccccc1NC1=C(Cl)C(=O)N(c2cccc(Br)c2)C1=O | 
21 | > 200 | COc1ccc(N2C(=O)C(Cl)=C(Nc3ccccc3C(=O)O)C2=O)cc1 | 
22 | 69.1 | N#Cc1ccc(Br)cc1N1C(=O)C(Cl)=C(Nc2ccccc2C(=O)O)C1=O | 
23 | 32.9 | Cc1ccc(N2C(=O)C(Cl)=C(Nc3ccccc3C(=O)O)C2=O)cc1Br | 
24 | > 200 | O=C(O)c1ccccc1NC1=C(Cl)C(=O)N(c2ccc(O)cc2)C1=O | 
25 | 34.1 | CC(=O)c1ccc(N2C(=O)C(Cl)=C(Nc3ccccc3C(=O)O)C2=O)cc1 | 

Row | SMILES | IC50 (RNA demethylase ALKBH5 [1]) [µM] | further results
26 | N#Cc1ccc(N2C(=O)C(Cl)=C(Nc3ccccc3C(=O)O)C2=O)cc1Br | 18.7 | 
27 | Cc1cc([N+](=O)[O-])c(Br)cc1N1C(=O)C(Cl)=C(Nc2ccccc2C(=O)O)C1=O | > 200 | 
28 | O=C(O)c1ccccc1NC1=C(Cl)C(=O)N(c2ccc([N+](=O)[O-])c(Br)c2)C1=O | 16.5 | 
